From ChEMBL document CHEMBL1201862, “PubChem BioAssay data set” (2004)
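1) Cells in 96-well plates. 2) Compound, 48 h, 5 concentrations. 3) Linear interpolation between surrounding doses. 4) Unreached endpoint = highest concentration. GI50 marks 50% less growth.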 Activity calls are given as the source filed them. Rule as the data show it: active = GI50 up to about 1.1 µM and inactive = higher.

Experiments:
Assay in all cases: NCI anticancer screen, dose series, 48 h
SF-295 = test system: SF-295
A498 = test system: A498
RPMI-8226 = test system: RPMI-8226
COLO 205 = test system: COLO 205
SF-539 = test system: SF-539
HOP-62 = test system: HOP-62
MOLT-4 = test system: MOLT-4
Malme-3M = test system: Malme-3M
CAKI-1 = test system: CAKI-1
RXF 393 = test system: RXF 393
KM12 = test system: KM12
SNB-19 = test system: SNB-19
NCI/ADR-RES = test system: NCI/ADR-RES
MCF7 = test system: MCF7
K562 = test system: K562
CCRF-CEM = test system: CCRF-CEM
SR = test system: SR
A549 = test system: A549
OVCAR-4 = test system: OVCAR-4
MDA-MB-231 = test system: MDA-MB-231
OVCAR-8 = test system: OVCAR-8
SN12C = test system: SN12C
EKVX = test system: EKVX
NCI-H522 = test system: NCI-H522
UO-31 = test system: UO-31
786-0 = test system: 786-0
ACHN = test system: ACHN
SF-268 = test system: SF-268
IGROV-1 = test system: IGROV-1
OVCAR-5 = test system: OVCAR-5
SW-620 = test system: SW-620
OVCAR-3 = test system: OVCAR-3
HOP-92 = test system: HOP-92
SK-MEL-28 = test system: SK-MEL-28
SNB-75 = test system: SNB-75
UACC-62 = test system: UACC-62
Hs-578T = test system: Hs-578T
BT-549 = test system: BT-549
HCT-116 = test system: HCT-116
NCI-H460 = test system: NCI-H460
MDA-MB-435 = test system: MDA-MB-435
T47D = test system: T47D
TK-10 = test system: TK-10
UACC-257 = test system: UACC-257
U-251 = test system: U-251
DU-145 = test system: DU-145
HT-29 = test system: HT-29
PC-3 = test system: PC-3
NCI-H23 = test system: NCI-H23
MDA-N = test system: MDA-N
SK-MEL-2 = test system: SK-MEL-2
SK-MEL-5 = test system: SK-MEL-5
LOX IMVI = test system: LOX IMVI
HL-60 = test system: HL-60
M14 = test system: M14
NCI-H226 = test system: NCI-H226
SK-OV-3 = test system: SK-OV-3
HCT-15 = test system: HCT-15

**Q.** What does the source list for NCC1OC(n2cnc3c(N)ncnc32)CC1O (centres undefined)?
**A.** GI50 (SF-295): > 100 µM (inactive); GI50 (A498): > 100 µM (inactive); GI50 (RPMI-8226): > 100 µM (inactive); GI50 (COLO 205): > 100 µM (inactive); GI50 (SF-539): > 100 µM (inactive); GI50 (HOP-62): > 100 µM (inactive); GI50 (MOLT-4): > 100 µM (inactive); GI50 (Malme-3M): > 100 µM (inactive); GI50 (CAKI-1): > 100 µM (inactive); GI50 (RXF 393): > 100 µM (inactive); GI50 (KM12): > 100 µM (inactive); GI50 (SNB-19): > 100 µM (inactive); GI50 (NCI/ADR-RES): > 100 µM (inactive); GI50 (MCF7): > 100 µM (inactive); GI50 (K562): > 100 µM (inactive); GI50 (CCRF-CEM): > 100 µM (inactive); GI50 (SR): > 100 µM (inactive); GI50 (A549): > 100 µM (inactive); GI50 (OVCAR-4): > 100 µM (inactive); GI50 (MDA-MB-231): > 100 µM (inactive); GI50 (OVCAR-8): > 100 µM (inactive); GI50 (SN12C): > 100 µM (inactive); GI50 (EKVX): > 100 µM (inactive); GI50 (NCI-H522): > 100 µM (inactive); GI50 (UO-31): > 100 µM (inactive); GI50 (786-0): > 100 µM (inactive); GI50 (ACHN): > 100 µM (inactive); GI50 (SF-268): > 100 µM (inactive); GI50 (IGROV-1): > 100 µM (inactive); GI50 (OVCAR-5): > 100 µM (inactive); GI50 (SW-620): > 100 µM (inactive); GI50 (OVCAR-3): > 100 µM (inactive); GI50 (HOP-92): > 100 µM (inactive); GI50 (SK-MEL-28): > 100 µM (inactive); GI50 (SNB-75): > 100 µM (inactive); GI50 (UACC-62): > 100 µM (inactive); GI50 (Hs-578T): > 100 µM (inactive); GI50 (BT-549): > 100 µM (inactive); GI50 (HCT-116): > 100 µM (inactive); GI50 (NCI-H460): > 100 µM (inactive); GI50 (MDA-MB-435): > 100 µM (inactive); GI50 (T47D): > 100 µM (inactive); GI50 (TK-10): > 100 µM (inactive); GI50 (UACC-257): > 100 µM (inactive); GI50 (U-251): > 100 µM (inactive); GI50 (DU-145): > 100 µM (inactive); GI50 (HT-29): > 100 µM (inactive); GI50 (PC-3): > 100 µM (inactive); GI50 (NCI-H23): > 100 µM (inactive); GI50 (MDA-N): > 100 µM (inactive); GI50 (SK-MEL-2): > 100 µM (inactive); GI50 (SK-MEL-5): > 100 µM (inactive); GI50 (LOX IMVI): > 100 µM (inactive); GI50 (HL-60): > 100 µM (inactive); GI50 (M14): > 100 µM (inactive); GI50 (NCI-H226): > 100 µM (inactive); GI50 (SK-OV-3): > 100 µM (inactive); GI50 (HCT-15): > 100 µM

**Q.** How did the GI50 (SF-295) turn out when Cc1nc2sc3cccc(Cl)c3n2c(=O)c1/N=N/c1ccc(Cl)cc1 was run?
**A.** 53.1 µM (inactive)

**Q.** What about the GI50 (A498) of the same molecule?
**A.** 17.4 µM (inactive)

**Q.** And the GI50 (RPMI-8226)?
**A.** > 100 µM (inactive)

**Q.** What about the GI50 (COLO 205) of the same molecule?
**A.** 94.6 µM (inactive)

**Q.** And the GI50 (SF-539)?
**A.** > 100 µM (inactive)

**Q.** What about the GI50 (HOP-62) of the same molecule?
**A.** 75.2 µM (inactive)

**Q.** And the GI50 (MOLT-4)?
**A.** 44.9 µM (inactive)

**Q.** And the GI50 (Malme-3M)?
**A.** 70.6 µM (inactive)

**Q.** What about the GI50 (CAKI-1) of the same molecule?
**A.** > 100 µM (inactive)

**Q.** And the GI50 (RXF 393)?
**A.** > 100 µM (inactive)

**Q.** What about the GI50 (KM12) of the same molecule?
**A.** > 100 µM (inactive)

**Q.** What about the GI50 (SNB-19) of the same molecule?
**A.** > 100 µM (inactive)

**Q.** What about the GI50 (NCI/ADR-RES) of the same molecule?
**A.** > 100 µM (inactive)

**Q.** And the GI50 (MCF7)?
**A.** 87.5 µM (inactive)

**Q.** And the GI50 (K562)?
**A.** 63 µM (inactive)

**Q.** And the GI50 (CCRF-CEM)?
**A.** > 100 µM (inactive)

**Q.** What about the GI50 (SR) of the same molecule?
**A.** > 100 µM (inactive)

**Q.** And the GI50 (A549)?
**A.** 77.8 µM (inactive)

**Q.** What about the GI50 (OVCAR-4) of the same molecule?
**A.** > 100 µM (inactive)

**Q.** And the GI50 (MDA-MB-231)?
**A.** 71 µM (inactive)

**Q.** And the GI50 (OVCAR-8)?
**A.** > 100 µM (inactive)

**Q.** And the GI50 (SN12C)?
**A.** > 100 µM (inactive)

**Q.** And the GI50 (EKVX)?
**A.** 38.5 µM (inactive)

**Q.** And the GI50 (NCI-H522)?
**A.** 45.7 µM (inactive)

**Q.** What about the GI50 (786-0) of the same molecule?
**A.** > 100 µM (inactive)

**Q.** What about the GI50 (ACHN) of the same molecule?
**A.** 59.7 µM (inactive)

**Q.** And the GI50 (SF-268)?
**A.** 58.9 µM (inactive)

**Q.** What about the GI50 (IGROV-1) of the same molecule?
**A.** 63.8 µM (inactive)

**Q.** What about the GI50 (OVCAR-5) of the same molecule?
**A.** > 100 µM (inactive)

**Q.** And the GI50 (SW-620)?
**A.** 66.5 µM (inactive)

**Q.** And the GI50 (OVCAR-3)?
**A.** 46.7 µM (inactive)

**Q.** And the GI50 (HOP-92)?
**A.** 46.6 µM (inactive)

**Q.** And the GI50 (SK-MEL-28)?
**A.** > 100 µM (inactive)

**Q.** What about the GI50 (SNB-75) of the same molecule?
**A.** 85.3 µM (inactive)

**Q.** And the GI50 (Hs-578T)?
**A.** 45.9 µM (inactive)

**Q.** What about the GI50 (BT-549) of the same molecule?
**A.** 93.8 µM (inactive)

**Q.** And the GI50 (HCT-116)?
**A.** 88.1 µM (inactive)

**Q.** What about the GI50 (NCI-H460) of the same molecule?
**A.** > 100 µM (inactive)

**Q.** What about the GI50 (MDA-MB-435) of the same molecule?
**A.** > 100 µM (inactive)

**Q.** And the GI50 (T47D)?
**A.** 45.3 µM (inactive)

**Q.** What about the GI50 (TK-10) of the same molecule?
**A.** > 100 µM (inactive)

**Q.** And the GI50 (UACC-257)?
**A.** 98.6 µM (inactive)

**Q.** What about the GI50 (U-251) of the same molecule?
**A.** > 100 µM (inactive)

**Q.** What about the GI50 (DU-145) of the same molecule?
**A.** > 100 µM (inactive)

**Q.** And the GI50 (HT-29)?
**A.** 67.1 µM (inactive)

**Q.** And the GI50 (PC-3)?
**A.** 51.2 µM (inactive)

**Q.** And the GI50 (NCI-H23)?
**A.** 99.8 µM (inactive)

**Q.** What about the GI50 (MDA-N) of the same molecule?
**A.** > 100 µM (inactive)

**Q.** And the GI50 (SK-MEL-2)?
**A.** > 100 µM (inactive)

**Q.** And the GI50 (SK-MEL-5)?
**A.** 68.2 µM (inactive)

**Q.** And the GI50 (LOX IMVI)?
**A.** 58.1 µM (inactive)

**Q.** What about the GI50 (HL-60) of the same molecule?
**A.** > 100 µM (inactive)

**Q.** And the GI50 (M14)?
**A.** > 100 µM (inactive)

**Q.** What about the GI50 (NCI-H226) of the same molecule?
**A.** 42.4 µM (inactive)

**Q.** And the GI50 (SK-OV-3)?
**A.** > 100 µM (inactive)

**Q.** What about the GI50 (HCT-15) of the same molecule?
**A.** > 100 µM
